Experimental data: PubChem BioAssay (NCI)
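Results reflect a 48-hour exposure of cells in 96-well plates to compound at five concentrations. The concentration for full growth arrest is given as TGI.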

Columns and labels:
Assay in all cases: inhibition of tumour cell growth, NCI panel, 48 h
786-0 renal = system: 786-0 renal
A498 renal = system: A498 renal
A549 NSCLC = system: A549 NSCLC
ACHN renal = system: ACHN renal
BT-549 breast = system: BT-549 breast
CAKI-1 renal = system: CAKI-1 renal
COLO 205 colon = system: COLO 205 colon
DU-145 prostate = system: DU-145 prostate
EKVX NSCLC = system: EKVX NSCLC
HCT-116 colon = system: HCT-116 colon
HCT-15 colon = system: HCT-15 colon
HL-60(TB) leukemia = system: HL-60(TB) leukemia
HOP-62 NSCLC = system: HOP-62 NSCLC
HOP-92 NSCLC = system: HOP-92 NSCLC
HS 578T breast = system: HS 578T breast
HT29 colon = system: HT29 colon
IGROV1 ovarian = system: IGROV1 ovarian
K-562 leukemia = system: K-562 leukemia
KM12 colon = system: KM12 colon
LOX IMVI melanoma = system: LOX IMVI melanoma
M14 melanoma = system: M14 melanoma
MALME-3M melanoma = system: MALME-3M melanoma
MCF7 breast = system: MCF7 breast
MDA-MB-231 breast = system: MDA-MB-231 breast
MDA-MB-435 = system: MDA-MB-435
MDA-N = system: MDA-N
MOLT-4 leukemia = system: MOLT-4 leukemia
NCI-H226 lung = system: NCI-H226 lung
NCI-H23 lung = system: NCI-H23 lung
NCI-H460 lung = system: NCI-H460 lung
NCI-H522 lung = system: NCI-H522 lung
NCI/ADR-RES ovarian = system: NCI/ADR-RES ovarian
OVCAR-3 ovarian = system: OVCAR-3 ovarian
OVCAR-4 ovarian = system: OVCAR-4 ovarian
OVCAR-5 ovarian = system: OVCAR-5 ovarian
OVCAR-8 ovarian = system: OVCAR-8 ovarian
PC-3 prostate = system: PC-3 prostate
RPMI-8226 leukemia = system: RPMI-8226 leukemia
RXF 393 renal = system: RXF 393 renal
SF-268 CNS = system: SF-268 CNS
SF-295 CNS = system: SF-295 CNS
SF-539 CNS = system: SF-539 CNS
SK-MEL-2 melanoma = system: SK-MEL-2 melanoma
SK-MEL-28 melanoma = system: SK-MEL-28 melanoma
SK-MEL-5 melanoma = system: SK-MEL-5 melanoma
SK-OV-3 ovarian = system: SK-OV-3 ovarian
SN12C renal = system: SN12C renal
SNB-19 CNS = system: SNB-19 CNS
SR leukemia = system: SR leukemia
SW-620 colon = system: SW-620 colon
T-47D breast = system: T-47D breast
TK-10 renal = system: TK-10 renal
U251 CNS = system: U251 CNS
UACC-257 melanoma = system: UACC-257 melanoma
UACC-62 melanoma = system: UACC-62 melanoma
UO-31 renal = system: UO-31 renal

Measured: TGI

OCCCN=C1CCCCC1
> 100 µM: all assays above
